Measured values taken from patent publication US20260060960A1, “GAMMA-SECRETASE INHIBITORS FOR USE IN THE TREATMENT OF INHERITED EPIDERMOLYSIS BULLOSA” (OSPEDALE PEDIATRICO BAMBINO GESU', priority 2022, published 2026).
“Also recorded” adds a separate entry of the source.

Assays:
Assay type in all cases: cell-based, human
[1] = test system: primary fibroblasts from RDEB patients (RDEB-FBs); assay: MTT proliferation assay on RDEB fibroblasts; conditions: 20 μM
Procedure: Proliferation rate was assessed by 3-(4,5-dimethyl-2-thiazolyl)-2,5-diphenyl-2H-tetrazolium bromide (MTT) assay, following the manufacturer's protocol. In brief, three different strains of RDEB-FBs were seeded at the density of 4×10^3 cells into 96-well plates. The day after, RDEB-FBs growing in DMEM containing 10% FBS were treated with 20 μM DAPT or PF-03084014 for 24 h or 48 h. Cells treated with the vehicle DMSO were used as controls. At the selected time points, medium was replaced with MTT solution and plates were incubated in a dry incubator at 37° C. for 3 h. Thereafter, cells were lysed in DMSO to dissolve formazan crystals and absorbance values were recorded at 560 nm with an Infinite F50 microplate reader (Tecan, Mannedorf, Switzerland). Values recorded 24 h after cell seeding, before GSI stimulation (TO) were used as reference.

[2] = test system: primary fibroblasts from RDEB patients (RDEB-FBs); assay: Oris cell migration assay; conditions: 24 h, vs non-treated cells
Procedure: Migration rate was evaluated using an Oris™ Cell Migration Assay Kit (Platypus Technologies, Madison, WI, USA) following the manufacturer's instructions. Briefly, cells were seeded at high density (5×10^4 per well) onto 96-well plates containing medical-grade silicon stoppers that restrict cell seeding to an outer annular region of the well, and serum starved overnight. The day after, silicon stoppers were removed and cells were transfected. Analysis of cell migration into the detection zone was performed after Giemsa stain (Sigma-Aldrich). The detection zone was photographed with a Leica DMi8 microscope (Leica Microsystems, Wetzlar, Germany) at 0 h (premigration controls) and 24 h after stopper removal. ImageJ was used to calculate the percentage of cell-free area. The cell migration assay of RDEB-FBs and NH-FBs grown under basal conditions was performed following the same protocol.

[3] = test system: NOTCH1 intracellular domain (N1-ICD); assay: Immunoblotting of cleaved NOTCH1 (N1-ICD) in nuclear extracts of RDEB fibroblasts; conditions: 24 h; for intranuclear levels of N1-ICD: RDEB-FBs, 5, 10 and 20 μM
Source text: 3-(4,5-dimethyl-2-thiazolyl)-2,5-diphenyl-2H-tetrazolium bromide (MTT) assay showing the impact of DAPT and PF-03084014 treatment on viability and proliferation rate of three primary fibroblast strains from healthy controls (NH-FBs). Absorbance values (Abs) were converted in percentage by using the following formula: AbsDAPT or PF-03084014×100/AbsREFERENCE WELLS. Data are presented as mean±standard deviation (SD) of at least eight technical replicates per condition. Cells treated with the vehicle DMSO (Panel A), and cells analyzed 24 h after seeding (T0) (Panel B) were considered as reference wells. NH-FBs were growth in DMEM medium containing 10% fetal bovine serum (FBS). […] Based on the results, it was chosen to use GSIs at 20 μM (black arrows) as it was the minimal drug concentration inducing a reduction of cell proliferation after 24 h of treatment. (Panel C) Immunoblotting analysis showing the protein levels of the cleaved and biologically active form of NOTCH1 receptor (N1-ICD, NOTCH1 intracellular domain) in nuclear extracts of primary fibroblasts from RDEB patients (RDEB-FBs, n=2) treated for 24 h with DAPT and PF-03084014 at different doses, ranging from 0.1 to 20 μM. Cells treated with the vehicle dimethyl sulfoxide (DMSO) were used as control. The reduced nuclear localization of N1-ICD indicates Notch pathway inhibition. […] Lamin B1 (LMNB1) and glyceraldehyde-3-phosphate dehydrogenase (GAPDH) served as loading controls for the nuclear and cytoplasmic protein fractions, respectively. **P-value <0.01, ***P<0.001.
RDEB-FBs were seeded on 100 mm cell culture dishes (8×10^5 cells/dish). Subconfluent cells were treated with different concentrations of PF-03084014 or DAPT for 24 h (FIG. 1—Panel C) or with 2 ng/mL of TGF-β1 for 6 h (FIG. 3D). DMSO-treated cells were used as controls. After cell harvesting with trypsin-EDTA, cytoplasmic and nuclear lysates were obtained using NE-PER™ Nuclear and Cytoplasmic Extraction Reagents kit (Thermo Fisher Scientific), following the manufacturer's instructions with slight modifications. […]

[4] = test system: primary fibroblasts from RDEB patients (RDEB-FBs); assay: Collagen deposition analysis (Sircol assay); conditions: 96 h
Procedure: The amount of collagens deposited into the extracellular matrix (ECM) was measured by using the Sirius red staining-based Sircol assay (Biocolor, Carrickfergus, Northern Ireland-UK). Briefly, two RDEB-FB strains were seeded into 12-well plates (55.000 cells/well), and growth for two days until they reached about 80-90% confluence. Then, cells were treated for 96 h with PF-03084014 (5 μM), DAPT (20 μM) or the corresponding amount of vehicle DMSO in serum-free media. GSI stimulation was performed in the presence or in the absence of TGF-β1 (2 ng/mL) as inducer of collagen synthesis. In order to further improve collagen deposition, RDEB-FB cultures were daily supplemented with 50 μg/mL of L-ascorbic acid (Merck) and 100 μg/mL of dextran sulfate 500 kDa (Merck). ECM collagens were solubilized by scraping culture wells with a solution of 0.5 M acid acetic containing pepsin at 0.1 mg/mL (Pepsin […].4.23.1, product code: […], Merck) and incubated overnight at 4° C. in agitation. The day after, ECM lysates were neutralized with 100 μL of Acid Neutralizing Reagent (Biocolor), and concentrated by overnight incubation in ice-water mix, in the presence of 200 μL of Isolation & Concentration Reagent (Biocolor). Sample absorbance values were measured by BioTek Synergy H1 microplate reader (Agilent, Santa Clara, CA, USA) at 560 nm and analyzed through the GEN5TM software v. 3.04 (Agilent).

SMILES	cell proliferation (MTT) ([1]; 24 and 48 h)	ability to migrate into the cell-free area [2]	intranuclear levels of N1-ICD [3]	collagen deposition into the ECM ([4]; 20 μM, with or without TGF-β1)	proliferation rate (MTT) ([1]; 48 h, vs untreated cells)	nuclear N1-ICD protein levels (NOTCH1 cleavage and nuclear translocation) ([3]; RDEB-FBs, 0.1, 0.5, 1 μM, compared with DAPT)	reduction of pepsin-soluble collagens deposited into the ECM ([4]; 5 μM, absence or presence of TGF-β1, vs untreated)
C[C@H](NC(=O)Cc1cc(F)cc(F)c1)C(=O)N[C@H](C(=O)OC(C)(C)C)c1ccccc1 [DAPT, N—[N-(3,5-difluorophenacetyl)-L-alanyl]-S-phenylglycine t-butyl ester]	didn't display variations in cell proliferation	significant decrease of RDEB-FB ability to migrate	comparable impact on the intranuclear levels of N1-ICD	DAPT-mediated reduction of collagen deposition in each experimental condition, though the difference was moderate	–	–	–
CCC[C@H](N[C@H]1CCc2cc(F)cc(F)c2C1)C(=O)Nc1cn(C(C)(C)CNCC(C)(C)C)cn1 [PF-03084014, (S)-2-((S)-5,7-difluoro-1,2,3,4-tetrahydronaphthalen-3-ylamino)-N-(1-(2-methyl-1-(neopentylamino)propan-2-yl)-1H-imidazol-4-yl)pentanamide]	–	significant decrease of RDEB-FB ability to migrate	comparable impact on the intranuclear levels of N1-ICD	–	statistically significant reduction of RDEB-FB proliferation rate	huge reduction; also recorded: greater ability of PF-03084014 in inhibiting NOTCH1 cleavage and its nuclear translocation	50%
